In PubChem BioAssay (NCI):
Several values for one entry are separate records, joined by “and”; a condition that tells them apart may be missing. Equal entries are not always repeated.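 In this assay, cells in 96-well plates receive the compound at five concentrations for 48 hours. Endpoints are linearly interpolated between the surrounding concentrations. TGI: total growth inhibition.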

How the values were obtained:
Test in all cases: growth of human tumour cells (NCI), 48 h
A549 NSCLC = system: A549 NSCLC
CCRF-CEM leukemia = system: CCRF-CEM leukemia
HCT-15 colon = system: HCT-15 colon
HT29 colon = system: HT29 colon
K-562 leukemia = system: K-562 leukemia
LOX IMVI melanoma = system: LOX IMVI melanoma
M14 melanoma = system: M14 melanoma
MOLT-4 leukemia = system: MOLT-4 leukemia
NCI-H460 lung = system: NCI-H460 lung
OVCAR-4 ovarian = system: OVCAR-4 ovarian
OVCAR-5 ovarian = system: OVCAR-5 ovarian
SN12C renal = system: SN12C renal
TK-10 renal = system: TK-10 renal
U251 CNS = system: U251 CNS
CAKI-1 renal = system: CAKI-1 renal
MDA-N = system: MDA-N
PC-3 prostate = system: PC-3 prostate
NCI/ADR-RES ovarian = system: NCI/ADR-RES ovarian
T-47D breast = system: T-47D breast

Measured: TGI

C[C@]12CCC3c4ccc(OC(=O)c5ccccc5)cc4CC[C@H]3C1CC[C@@H]2OC(=O)C12OC1CCC2=O (some centres not stated)
7.55 µM: HT29 colon
5.78 µM: MOLT-4 leukemia
33.9 µM: TK-10 renal
5.39 µM: CCRF-CEM leukemia
8.13 µM: LOX IMVI melanoma
8.3 µM: NCI-H460 lung
17.4 µM: U251 CNS
10.6 µM: OVCAR-4 ovarian
11.9 µM: SN12C renal
31.3 µM: HCT-15 colon
21.4 µM: OVCAR-5 ovarian
12 µM: M14 melanoma
10.3 µM: A549 NSCLC
5.06 µM: K-562 leukemia

CC(=O)OCc1nc(C#N)c(N)o1
not listed: A549 NSCLC | M14 melanoma | NCI/ADR-RES ovarian | T-47D breast
> 100 µM: all other assays above

OCCN1CCN(CCO)Cc2ccccc2OCCOc2ccccc2C1
not listed: MDA-N | PC-3 prostate | NCI/ADR-RES ovarian | T-47D breast
> 100 µM: all other assays above

CC(C)[Si](OC12CCC(CC1O)CC2C(=O)O)(C(C)C)C(C)C (configuration not stated)
30 µM: OVCAR-5 ovarian
33.6 µM: NCI/ADR-RES ovarian
26.8 µM: HT29 colon
25 µM: PC-3 prostate
39.7 µM: MDA-N
24.8 µM: HCT-15 colon
25.1 µM: OVCAR-4 ovarian
17.1 µM: TK-10 renal
70 µM: CCRF-CEM leukemia
20.2 µM: NCI-H460 lung
31.4 µM: U251 CNS
28.3 µM: A549 NSCLC
36.4 µM: CAKI-1 renal
37.5 µM: T-47D breast
> 100 µM: K-562 leukemia | MOLT-4 leukemia | SN12C renal
29.3 µM: M14 melanoma

COC(=O)C1=CC(O)CCC1c1ccc(OC)cc1 (configuration not stated)
not listed: MDA-N | PC-3 prostate | NCI/ADR-RES ovarian | T-47D breast
> 100 µM: all other assays above

CC1CC(N)=Nc2ccccc2N1Cc1ccccc1 (configuration not stated)
27.4 µM: HT29 colon
15.7 µM: K-562 leukemia
26.8 µM: NCI-H460 lung
> 100 µM: OVCAR-5 ovarian
39.6 µM: MDA-N
29.3 µM: M14 melanoma
32.7 µM: A549 NSCLC
30.2 µM: SN12C renal
33.7 µM: CCRF-CEM leukemia
29.9 µM: HCT-15 colon
18.4 µM: MOLT-4 leukemia
25.2 µM: CAKI-1 renal
28.4 µM: NCI/ADR-RES ovarian | U251 CNS
34.5 µM: OVCAR-4 ovarian
28.2 µM: PC-3 prostate | TK-10 renal

CCN1C(C)=NC2C(=O)c3ccccc3C(=O)C21 (configuration not stated)
62.7 µM: OVCAR-4 ovarian
not listed: OVCAR-5 ovarian | CAKI-1 renal | MDA-N | PC-3 prostate | NCI/ADR-RES ovarian | T-47D breast
> 100 µM: all other assays above

O=[N+]([O-])C(/C(Cl)=C(/Cl)N1CCCCC1)=C1\NCCO1
not listed: K-562 leukemia | LOX IMVI melanoma | TK-10 renal
> 100 µM: all other assays above

CCC1(O)CC(OC2CC(N(C)C)C(OC3CC(O)C(OC4OC(C)C(=O)C=C4N)C(C)O3)C(C)O2)c2c(O)c3c(c(O)c2C1C(=O)OC)C(=O)c1cccc(O)c1C3=O (configuration not stated)
0.215 µM: HT29 colon
1.17 µM: HCT-15 colon
0.0761 µM and 0.0126 µM: CCRF-CEM leukemia
0.0778 µM: TK-10 renal
0.0268 µM: M14 melanoma
1.13 µM: SN12C renal
0.118 µM and 0.012 µM: MDA-N
0.125 µM and 0.0234 µM: K-562 leukemia
0.16 µM and 0.966 µM: OVCAR-5 ovarian
0.613 µM: LOX IMVI melanoma
1.08 µM: U251 CNS
0.294 µM and 0.0742 µM: PC-3 prostate
0.0151 µM: NCI-H460 lung

C1COC2SC3=C(SC(=C4SC5=C(SCCS5)S4)S3)SC2O1 (configuration not stated)
not listed: LOX IMVI melanoma | MDA-N
> 100 µM: all other assays above

COc1ccc2[nH]c3c4c(c5cc(C(C)(C)C)ccc5c3c2c1)C(=O)N(c1ccccc1)C4=O
not listed: CCRF-CEM leukemia | HCT-15 colon | SN12C renal | MDA-N | PC-3 prostate | NCI/ADR-RES ovarian | T-47D breast
> 100 µM: all other assays above

CCOC(=O)/C(C#N)=C(/NS(=O)(=O)c1cc(C)c(Cl)cc1[S-])[n+]1ccc(N(C)C)cc1
not listed: LOX IMVI melanoma | MDA-N
> 100 µM: all other assays above

CC1CCCOc2ccc(cc2)C=Nc2ccc(cc2)CCc2ccc(cc2)N=Cc2ccc(cc2)OCCC1 (configuration not stated)
not listed: T-47D breast
> 100 µM: all other assays above

C=C(Cl)C(C)(Cl)CCC(Cl)C(C)(C)Cl (configuration not stated)
61.2 µM: LOX IMVI melanoma
66.1 µM: MOLT-4 leukemia
not listed: HCT-15 colon | T-47D breast
> 100 µM: all other assays above
